Legend:
Lewis lung tumors = test: Growth of SC Lewis lung tumors
Protocol: Doxil® was administered 4 mg/kg IV, weekly for 3 cycles. Amifostine, 100 or 200 mg/kg IV, was administered before and 1, 2, and 3 days after each Doxil® treatment cycle.

PPE lesions = test: Rat model of Doxil-induced palmar-plantar erythrodysesthesia (PPE); type: in vivo, Sprague-Dawley rats
Protocol: PPE score is the product of Severity Score and percentage of body area affected. Overall PPE score is the sum of scores for each body area.
24 male Sprague-Dawley rats weighing between 250 to 300 grams(g) were intravenously (IV) treated with Doxil® weekly for 5 cycles of administration. The dosage administered was 2.5 mg/kg IV. […] The rats were observed weekly for lesions and scoring (FIG. 1). Scores for severity and percentage affected body area were analyzed and reported on final observation.
Sprague-Dawley rats were treated with amifostine at a dosage of 100 or 200 milligram/kilogram (mg/kg) IV, weekly, approximately 15 minutes before each Doxil® injection or treated with amifostine, 100 mg/kg IV, twice weekly at 15 min before and 3 days after Doxil injection (FIG. 2).

C26 colon tumors = test: Survival of mice with IP C26 colon tumors; type: in vivo, BalbC mice; conditions: amifostine 200 mg/kg for five administrations
Protocol: Euthanasia was provided for animals with weight loss greater than 20% or with clinical signs of distress. Survival of female BalbC mice with IP C26 colon tumors treated once with Doxil® (8 mg/kg) (tumor inoculation: 10^6 cells IP). Animals were administered 200 mg/kg of amifostine subcutaneously (SC) prior to Doxil® administration and 1, 2, 4 and 6 days after Doxil® administration (FIG. 4).

[1] = test system: canine non-Hodgkin's lymphoma; conditions: cited from earlier work
[2] = test system: murine and human xenograft tumor models; conditions: in vivo; cited from earlier work

SMILES | rate of tumor growth (Lewis lung tumors; Doxil 4 mg/kg IV weekly for 3 cycles, amifostine 100 or 200 mg/kg IV before and 1, 2, 3 days after each Doxil) | toxicity to the animals (Lewis lung tumors; amifostine 200 mg/kg days 0-3 of each Doxil treatment cycle) | overall PPE severity score (PPE lesions; amifostine 100 mg/kg IV twice weekly, 15 min before and 3 days after Doxil 2.5 mg/kg, p<0.02) | overall PPE severity score (PPE lesions; amifostine 100 mg/kg IV weekly, 15 min before each Doxil 2.5 mg/kg, not significant) | overall PPE severity score (PPE lesions; amifostine 200 mg/kg IV weekly before each Doxil 2.5 mg/kg, p<0.01) | incidence of PPE (PPE lesions; amifostine treatment with liposomal doxorubicin 2.5 mg/kg weekly) | toxicity (weight loss, lethargy) (C26 colon tumors) | likelihood of severe PPE and discontinuation, placebo-treated versus pyridoxine-treated dogs (relative risk) ([1]; liposomal doxorubicin 1 mg/kg q 3 weeks x5, pyridoxine 50 mg tid oral 15 weeks, p=0.032) [fold] | remission rates between groups ([1]; pyridoxine versus placebo) | duration of remission ([1]; pyridoxine-treated dogs, placebo 48 days, p=0.084) [days] | survival ([1]; pyridoxine-treated dogs, placebo 130 days, p=0.182) [days] | effect of pyridoxine co-treatment on therapeutic effect of liposomal doxorubicin [2]
NCCCNCCSP(=O)(O)O [amifostine] | did not affect rate of tumor growth | not significantly toxic | 4.33 | 7.94 | 3.18 | reduced | Significant toxicity | – | – | – | – | –
Cc1ncc(CO)c(CO)c1O [pyridoxine] | – | – | – | – | – | – | – | 4.2 | No difference | 159 | 201 | does not reduce the therapeutic effect
